Measured values reported in the Kinase Knowledgebase extract (Sharma et al. 2016).

Molecular target: CDK2 (UniProt P24941)
Experiment: Enzyme Assay

Compound: CCc1cnn2c(NCc3ccc[n+]([O-])c3)cc(-c3ccccc3)nc12
- IC50: 0.1 to 100 nM

Compound: [O-][n+]1cccc(CNc2cc(C3CCOCC3)nc3c(Br)cnn23)c1
- IC50: 0.1 to 100 nM

Compound: CC(=O)N1CCCC(c2cc(NCc3cccnc3)n3ncc(Br)c3n2)C1 (configuration not stated)
- IC50: 0.1 to 100 nM

Compound: CC(C)(O)[C@H]1CCCC[C@H]1c1cc(NCc2cccnc2)n2ncc(Br)c2n1
- IC50: 0.1 to 100 nM

Compound: OCC1CCCCN1c1cc(NCc2cccnc2)n2ncc(Br)c2n1 (configuration not stated)
- IC50: 0.1 to 100 nM

Compound: Brc1cnn2c(NCc3cccnc3)cc(C3CCOCC3)nc12
- IC50: 0.1 to 100 nM

Compound: CC1(C)[C@@H]2[C@@H](CO)N(c3cc(NCc4cccnc4)n4ncc(Br)c4n3)C[C@@H]21
- IC50: 0.1 to 100 nM

Compound: CS(=O)(=O)N1CCCC(c2cc(NCc3cccnc3)n3ncc(Br)c3n2)C1 (configuration not stated)
- IC50: 0.1 to 100 nM

Compound: CC(=O)N1CCC(c2cc(NCc3cccnc3)n3ncc(Br)c3n2)CC1
- IC50: 0.1 to 100 nM

Compound: CC(C)(CO)Nc1cc(NCc2cccnc2)n2ncc(Br)c2n1
- IC50: 0.1 to 100 nM

Compound: O=c1cc(CNc2cc(-c3ccccc3)nc3c(Br)cnn23)cc[nH]1
- IC50: 0.1 to 100 nM

Compound: Brc1cnn2c(NCc3ccc4[nH]cnc4c3)cc(C3CCNCC3)nc12
- IC50: 0.1 to 100 nM

Compound: CC(C)c1cc(NCc2ccc[n+]([O-])c2)n2ncc(Br)c2n1
- IC50: 0.1 to 100 nM

Compound: Brc1cnn2c(NCc3cccnc3)cc(C3CCCNC3)nc12 (configuration not stated)
- IC50: 0.1 to 100 nM

Compound: Brc1cnn2c(NCc3cccnc3)cc(C3CCCCC3)nc12
- IC50: 0.1 to 100 nM

Compound: Cn1cnc2cc(CNc3cc(-c4ccccc4)nc4c(Br)cnn34)ccc21
- IC50: 0.1 to 100 nM

Compound: [O-][n+]1cccc(CNc2cc(N3CCC[C@H]3CO)nc3c(Br)cnn23)c1
- IC50: 0.1 to 100 nM

Compound: [O-][n+]1cccc(CNc2cc(C3CCNCC3)nc3c(Br)cnn23)c1
- IC50: 0.1 to 100 nM

Compound: CCc1cnn2c(NCc3ccnc(O)c3)cc(-c3ccccc3)nc12
- IC50: 0.1 to 100 nM

Compound: [O-][n+]1cccc(CNc2cc(-c3ccco3)nc3c(Br)cnn23)c1
- IC50: 0.1 to 100 nM

Compound: CCOc1ccc(CNc2cc(-c3ccccc3)nc3c(Br)cnn23)c[n+]1[O-]
- IC50: 0.1 to 100 nM

Compound: O=C(C1CC1)N1CCC(c2cc(NCc3cccnc3)n3ncc(Br)c3n2)CC1
- IC50: 0.1 to 100 nM

Compound: CNC(=O)c1ccc(CNc2cc(-c3ccccc3F)nc3c(Br)cnn23)cc1
- IC50: 0.1 to 100 nM

Compound: CC(C)[C@H](CO)Nc1cc(NCc2ccc[n+]([O-])c2)n2ncc(Br)c2n1
- IC50: 0.1 to 100 nM

Compound: CCc1cnn2c(NCc3ccc[n+]([O-])c3)cc(-c3ccccc3F)nc12
- IC50: 0.1 to 100 nM

Compound: [O-][n+]1cccc(CNc2cc(-c3ccccc3F)nc3c(Br)cnn23)c1
- IC50: 0.1 to 100 nM

Compound: OCCC1CCCCN1c1cc(NCc2cccnc2)n2ncc(Br)c2n1 (configuration not stated)
- IC50: 0.1 to 100 nM

Compound: OC[C@H]1CCCC[C@H]1Nc1cc(NCc2cccnc2)n2ncc(Br)c2n1
- IC50: 0.1 to 100 nM

Compound: Brc1cnn2c(NCc3ccc4[nH]cnc4c3)cc(C3CCCCC3)nc12
- IC50: 0.1 to 100 nM

Compound: [O-][n+]1cccc(CNc2cc(-c3cccs3)nc3c(Br)cnn23)c1
- IC50: 0.1 to 100 nM

Compound: CC(C)Oc1ccc(CNc2cc(-c3ccccc3F)nc3c(Br)cnn23)c[n+]1[O-]
- IC50: 0.1 to 100 nM

Compound: Fc1ccccc1-c1cc(NCc2ccc3[nH]cnc3c2)n2ncc(Br)c2n1
- IC50: 0.1 to 100 nM

Compound: COc1ccc(CNc2cc(-c3ccccc3F)nc3c(Br)cnn23)c[n+]1[O-]
- IC50: 0.1 to 100 nM

Compound: Cc1ccccc1-c1cc(NCc2ccc[n+]([O-])c2)n2ncc(Br)c2n1
- IC50: 0.1 to 100 nM

Compound: OC[C@H]1CCCC[C@H]1c1cc(NCc2cccnc2)n2ncc(Br)c2n1
- IC50: 0.1 to 100 nM

Compound: CC(C)(O)[C@@H]1CCCN1c1cc(NCc2cccnc2)n2ncc(Br)c2n1
- IC50: 0.1 to 100 nM

Compound: [O-][n+]1cc(CNc2cc(-c3ccccc3)nc3c(Br)cnn23)ccc1OCC(F)(F)F
- IC50: 0.1 to 100 nM

Compound: N[C@H]1CC[C@H](Nc2cc(NCc3cccnc3)n3ncc(Br)c3n2)CC1
- IC50: 0.1 to 100 nM

Compound: Brc1cnn2c(NCc3cccnc3)cc(C3CCNCC3)nc12
- IC50: 0.1 to 100 nM

Compound: NC(=O)N1CCC(c2cc(NCc3cccnc3)n3ncc(Br)c3n2)CC1
- IC50: 0.1 to 100 nM

Compound: Brc1cnn2c(NCc3ccc(-c4csnn4)cc3)cc(C3CCNCC3)nc12
- IC50: 0.1 to 100 nM

Compound: Nc1ncc(CNc2cc(C3CCCNC3)nc3c(Br)cnn23)cn1 (configuration not stated)
- IC50: 0.1 to 100 nM

Compound: [O-][n+]1cccc(CNc2cc(-c3ccccc3Cl)nc3c(Br)cnn23)c1
- IC50: 0.1 to 100 nM

Compound: CCc1cnn2c(NCc3ccc[n+]([O-])c3)cc(C3CCCCC3)nc12
- IC50: 0.1 to 100 nM

Compound: CCc1cnn2c(NCc3cccnc3)cc(-c3ccccc3)nc12
- IC50: 0.1 to 100 nM

Compound: OCC1(Nc2cc(NCc3cccnc3)n3ncc(Br)c3n2)CCCC1
- IC50: 0.1 to 100 nM

Compound: NC(=O)N1CCCC(c2cc(NCc3cccnc3)n3ncc(Br)c3n2)C1 (configuration not stated)
- IC50: 0.1 to 100 nM

Compound: CC(C)(O)[C@@H]1CCCN1c1cc(NCc2ccc[n+]([O-])c2)n2ncc(Br)c2n1
- IC50: 0.1 to 100 nM

Compound: O=c1ccc(CNc2cc(-c3ccccc3)nc3c(Br)cnn23)c[nH]1
- IC50: 0.1 to 100 nM

Compound: CCc1cnn2c(NCc3ccc(OC)[n+]([O-])c3)cc(-c3ccccc3F)nc12
- IC50: 0.1 to 100 nM

Compound: O=c1ccc(CNc2cc(C3CCCCC3)nc3c(Br)cnn23)c[nH]1
- IC50: 0.1 to 100 nM

Compound: [O-][n+]1cccc(CNc2cc(C3CCCCC3)nc3c(Br)cnn23)c1
- IC50: 0.1 to 100 nM

Compound: Brc1cnn2c(NCc3cccnc3)cc(-c3ccco3)nc12
- IC50: 0.1 to 100 nM

Compound: CC(C)[C@@H](CO)Nc1cc(NCc2ccc[n+]([O-])c2)n2ncc(Br)c2n1
- IC50: 0.1 to 100 nM

Compound: Oc1cc(CNc2cc(C3CCCCC3)nc3c(Br)cnn23)ccn1
- IC50: 0.1 to 100 nM

Compound: COc1c(Cl)cc(CNc2cc(-c3ccccc3)nc3c(Br)cnn23)c[n+]1[O-]
- IC50: 0.1 to 100 nM

Compound: Brc1cnn2c(NCc3cccnc3)cc(-c3ccccc3)nc12
- IC50: 0.1 to 100 nM

Compound: O=c1ccc(CNc2cc(-c3ccccc3F)nc3c(Br)cnn23)c[nH]1
- IC50: 0.1 to 100 nM

Compound: [O-][n+]1cccc(CNc2cc(-c3ccccc3)nc3c(Br)cnn23)c1
- IC50: 0.1 to 100 nM

Compound: CS(=O)(=O)N1CCC(c2cc(NCc3cccnc3)n3ncc(Br)c3n2)CC1
- IC50: 0.1 to 100 nM

Compound: [O-][n+]1cccc(CNc2cc(-c3ccc(Cl)cc3)nc3c(Br)cnn23)c1
- IC50: 0.1 to 100 nM

Compound: OCC[C@@H]1CCCN1c1cc(NCc2cccnc2)n2ncc(Br)c2n1
- IC50: 0.1 to 100 nM
